Source: ChEMBL document CHEMBL1201862, “PubChem BioAssay data set” (2004)
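Compound exposure: 48 hours, 5 concentrations, 96-well plates. GI50 marks 50% less growth.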 Calls of active or inactive are those of the source. No stated cut-off is given here; in the data, active = GI50 up to about 1.1 µM and inactive = higher.

Columns and labels:
Assay in all cases: NCI-60 cell line screen, 48 h
SNB-75 = system: SNB-75
SR = system: SR
T47D = system: T47D
HOP-62 = system: HOP-62
OVCAR-8 = system: OVCAR-8
786-0 = system: 786-0
HCT-15 = system: HCT-15
MDA-N = system: MDA-N
OVCAR-5 = system: OVCAR-5
A549 = system: A549
ACHN = system: ACHN
NCI-H226 = system: NCI-H226
NCI-H23 = system: NCI-H23
TK-10 = system: TK-10
UACC-257 = system: UACC-257
HCC 2998 = system: HCC 2998
MCF7 = system: MCF7
COLO 205 = system: COLO 205
U-251 = system: U-251
HL-60 = system: HL-60

Structure (SMILES) | GI50 (SNB-75) | GI50 (SR) | GI50 (T47D) | GI50 (HOP-62) | GI50 (OVCAR-8) | GI50 (786-0) | GI50 (HCT-15) [µM] | GI50 (MDA-N) | GI50 (OVCAR-5) | GI50 (A549) | GI50 (ACHN) | GI50 (NCI-H226) | GI50 (NCI-H23) | GI50 (TK-10) | GI50 (UACC-257) | GI50 (HCC 2998) | GI50 (MCF7) | GI50 (COLO 205) | GI50 (U-251) | GI50 (HL-60)
CN1CCC(n2[nH]c(-c3ccccc3)c(Cc3ccccc3)c2=O)CC1 [BENZPIPERYLON] | 29.7 µM (inactive) | 33.3 µM (inactive) | > 100 µM (inactive) | > 100 µM (inactive) | > 100 µM (inactive) | > 100 µM (inactive) | > 100 | > 100 µM (inactive) | > 100 µM (inactive) | > 100 µM (inactive) | > 100 µM (inactive) | > 100 µM (inactive) | > 100 µM (inactive) | > 100 µM (inactive) | > 100 µM (inactive) | > 100 µM (inactive) | > 100 µM (inactive) | > 100 µM (inactive) | > 100 µM (inactive) | –
Cc1ccc(-c2nc(-c3cnccn3)n(C3OC(CO)C(O)C(O)C3O)n2)cc1 (stereo not given) | > 100 µM (inactive) | > 100 µM (inactive) | > 100 µM (inactive) | > 100 µM (inactive) | > 100 µM (inactive) | > 100 µM (inactive) | > 100 | > 100 µM (inactive) | > 100 µM (inactive) | > 100 µM (inactive) | – | – | > 100 µM (inactive) | > 100 µM (inactive) | > 100 µM (inactive) | > 100 µM (inactive) | > 100 µM (inactive) | > 100 µM (inactive) | > 100 µM (inactive) | > 100 µM (inactive)
O=[N+]([O-])c1ccc(N2N=C(c3c(O)ccc4ccccc34)CC2c2ccc(Cl)cc2)c([N+](=O)[O-])c1 (stereo not given) | 12.2 µM (inactive) | 6.97 µM (inactive) | 32.6 µM (inactive) | 24.4 µM (inactive) | 21.7 µM (inactive) | 27.9 µM (inactive) | 14 | 33.1 µM (inactive) | 17.1 µM (inactive) | 15.1 µM (inactive) | 27.4 µM (inactive) | 20.9 µM (inactive) | 19.1 µM (inactive) | 41 µM (inactive) | 37.1 µM (inactive) | 28.6 µM (inactive) | 26.4 µM (inactive) | 16.1 µM (inactive) | 30 µM (inactive) | –
Cc1cc(C)n(-c2nc(-n3nc(C)cc3C)nc(-n3nc(C)cc3C)n2)n1 | – | > 100 µM (inactive) | > 100 µM (inactive) | > 100 µM (inactive) | 68.9 µM (inactive) | > 100 µM (inactive) | 83.8 | > 100 µM (inactive) | > 100 µM (inactive) | > 100 µM (inactive) | 38.6 µM (inactive) | 35.8 µM (inactive) | 88.7 µM (inactive) | 30.1 µM (inactive) | > 100 µM (inactive) | > 100 µM (inactive) | > 100 µM (inactive) | > 100 µM (inactive) | > 10 µM (inactive) | > 100 µM (inactive)
CC(O)CNC1=CC(=O)C(=O)c2ccccc21 (stereo not given) | 14.9 µM (inactive) | 16.7 µM (inactive) | 20.9 µM (inactive) | 18.2 µM (inactive) | – | 17.6 µM (inactive) | 15 | 18.4 µM (inactive) | 19.5 µM (inactive) | 19 µM (inactive) | 18.5 µM (inactive) | – | 16.5 µM (inactive) | 28.7 µM (inactive) | 16 µM (inactive) | 11.7 µM (inactive) | 19.5 µM (inactive) | 7.64 µM (inactive) | 15.8 µM (inactive) | 27.4 µM (inactive)
CSc1ccc(/C=C2\N=C(c3ccccc3)N(/N=C/c3cc4cc(C)ccc4nc3Cl)C2=O)cc1 | 21.2 µM (inactive) | 12.1 µM (inactive) | 22.9 µM (inactive) | 33.2 µM (inactive) | 16.1 µM (inactive) | 17.9 µM (inactive) | 23.3 | 14.4 µM (inactive) | 22.9 µM (inactive) | 19.5 µM (inactive) | 16.3 µM (inactive) | – | – | 16.9 µM (inactive) | 19.4 µM (inactive) | 16 µM (inactive) | 11.4 µM (inactive) | 16.7 µM (inactive) | 20 µM (inactive) | 22 µM (inactive)
CCCCn1c(N)c(-c2nc3ccccc3o2)sc1=S | – | 17.7 µM (inactive) | 19.3 µM (inactive) | 21.5 µM (inactive) | 17.5 µM (inactive) | 17.3 µM (inactive) | 15.4 | 15.6 µM (inactive) | 24.8 µM (inactive) | 13.6 µM (inactive) | 10.3 µM (inactive) | 15.7 µM (inactive) | 15.6 µM (inactive) | 18.3 µM (inactive) | 60.7 µM (inactive) | 36.1 µM (inactive) | 24.7 µM (inactive) | 29.4 µM (inactive) | 15.9 µM (inactive) | > 100 µM (inactive)
